# Measured values as given in patent US7550426B2, “Acetylated therapeutic procytotoxins” (GHC Research Development Corporation, priority 2005, dated 2009).
# Tests used:
# [1] = Mouse weight after 7 weeks of intraperitoneal injection in mouse model for prostate cancer; type: in vivo; conditions: nude mice with LNCaP tumor; following 7 weeks of intraperitoneal injection; compared to control animals
# Experimental: (§1) 20 nude mice are injected subcutaneously (right flank) with 0.5 ml of a 4 million cell/ml suspension (50% PBS 50% high concentration matrigel). Each mouse receives approximately 2 million cells. The mice are male, approximately 12 weeks of age and of the nude BalbC background.
# (§2) 5 days following LNCaP tumor inoculation, mice are injected with an acetylated γ-glutamate-masked amoebapore, a non-acetylated γ-glutamate-masked amoebapore, and a control. Six control mice are injected with 200 μl of PBS and the remaining 14 mice are injected with 200 μl of a 1 mg/ml solution of either the acetylated or non-acetylated γ-glutamate-masked amoebapore peptide (i.e., 200 μg peptide per injection). Mice are injected intraperitoneally, twice per week. PSA levels are measured after three, five, and seven weeks of treatment. Lower PSA levels relative to control provide an objective indication that the procytotoxin is converted to its cytotoxic form and is able to lyse a target cell.
# Additionally, mice are weighed following 7 weeks of intraperitoneal injection of a non-acetylated procytotoxin or an acetylated procytoxin in a mouse model for prostate cancer. […] Cachexia is a profound and marked state of constitutional disorder, representing general ill health. It is sometimes associated with an emaciated condition, such as cancerous cachexia seen in cases of a malignant tumor. […]
# LNCaP cells = experiment: In vitro lysis of LNCaP cells measured by LDH release; type: cell-based, human; conditions: concentration 160 μM
# Experimental: Prior to tumor injection, in vitro studies are conducted to check the activity of the acetylated and non-acetylated procytotoxin, and to check the activity of the LNCaP cells for their ability to secrete PSA. Peptide activity is checked by a LDH Cytotoxicity Detection Kit (Roche).
# Non-acetylated γ-glutamate-masked amoebapore (a modified cytotoxin comprising one or more γ-linked glutamate residues linked via a peptide bond to the epsilon amino group of at least one lysine, preferably the C-terminal-most lysine), and acetylated γ-glutamate-masked amoebapore are compared in vitro for their ability to lyse LNCaP cells, as measured by percent lactic acid dehydrogenase (LDH) release.
# LNCaP tumor = experiment: Plasma PSA levels in mouse model for human prostate cancer (LNCaP tumor), intraperitoneal treatment; type: in vivo; conditions: nude mice with LNCaP tumor; 200 μg peptide per injection, intraperitoneally, twice per week; PSA measured after three, five and seven weeks
# Experimental: LNCaP cells lot #3475262 (Catalog # CRL-1740) are received from ATCC, quickly thawed at 37° C. and placed in culture immediately. Cells are cultured in RPMI media (supplemented with 10% FBS, 50,000 units of Penicillin and 50,000 ug Streptomycin) and grown at 37° C. in the presence of 5% CO2. Cells are passed when approximately 80% confluent until there are enough cells to do the in vivo studies.
# as §1, §2
# nucleated cells = conditions: high concentrations; cited from earlier work
# [2] = target: prostate specific membrane antigen (human) (UniProt Q04609)
compound,measurement,setting,value
CC(=O)NC(CCC(=O)NC(CCC(=O)NCCCCC(N)C(N)=O)C(=O)O)C(=O)O (stereo not drawn) [Acetylated procytotoxin],weight loss,[1],experienced the least weight loss
same,% LDH Release,LNCaP cells,29.94%
same,plasma PSA levels compared to control,LNCaP tumor,lowered PSA levels to a greater extent
"NH2-Gly-Phe-Ile-Ala-Thr-Leu-Cys-Thr-Lys-Val-Leu-Asp-Phe-Gly-Ile-Asp-Lys-Leu-Ile-Gln-Leu-Ile-Glu-Asp-Lys-CONH2 (H-GFIATLCTKVLDFGIDKLIQLIEDK-NH2; listed as Entamoeba histolytica) [Amoebapore Helix 3, parent cytolytic peptide from Entamoeba histolytica amoebapore, third helix]",concentrations with cytolytic activity for nucleated cells,nucleated cells,10 to 100 µM
acetylated γ-glutamate-masked amoebapore (peptide),% LDH Release (% LDH Release),[2],29.9
non-acetylated γ-glutamate-masked amoebapore (peptide),% LDH Release (% LDH Release),[2],38.5
